Data from PubChem BioAssay AID328 (DTP/NCI, 2004).
Several values for one entry are separate records, joined by “and”; a condition that tells them apart may be missing. Equal entries are not always repeated. Inconclusive results and toxic doses are left out.

System: BDF1 mice, P388 leukemia ip, median survival T/C
Experiment: NCI In Vivo Anticancer Drug Screen. Data for tumor model P388 Leukemia (intraperitoneal) in B6D2F1 (BDF1) mice
Settings: endpoint: median survival time, higher = longer survival
Summary of the method: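 Mice carrying the transplantable tumour receive compound or vehicle. Survival is followed in each arm, and the treated measure is divided by the vehicle measure.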

[1] = dose: 100.0 mg/kg/injection, schedule: Q04DX003 (ip), vehicle: saline with Tween-80
[2] = dose: 200.0 mg/kg/injection, schedule: Q04DX003 (ip), vehicle: saline with Tween-80
[3] = dose: 400.0 mg/kg/injection, schedule: Q04DX003 (ip), vehicle: saline with Tween-80
[4] = dose: 25.0 mg/kg/injection, schedule: Q01DX009 (ip), vehicle: saline with Tween-80
[5] = dose: 50.0 mg/kg/injection, schedule: Q01DX009 (ip), vehicle: saline with Tween-80
[6] = dose: 100.0 mg/kg/injection, schedule: Q01DX009 (ip), vehicle: saline with Tween-80
[7] = dose: 200.0 mg/kg/injection, schedule: Q01DX009 (ip), vehicle: saline with Tween-80
[8] = dose: 400.0 mg/kg/injection, schedule: Q01DX009 (ip), vehicle: saline with Tween-80
[9] = dose: 12.5 mg/kg/injection, schedule: Q01DX009 (ip), vehicle: saline with Tween-80
[10] = dose: 100.0 mg/kg/injection, schedule: Q01DX009 (ip), vehicle: saline
[11] = dose: 200.0 mg/kg/injection, schedule: Q01DX009 (ip), vehicle: saline
[12] = dose: 50.0 mg/kg/injection, schedule: Q04DX003 (ip), vehicle: saline with Tween-80

## COC(=O)C(CSCSC)NC(=O)/C=C/c1ccccc1Cl (stereo not drawn)
[1]
  T/C: 100 % of control
[2]
  T/C: 87 % of control and 104 % of control
[3]
  T/C: 90 % of control

## CCCCCCCOc1cccc(OCCCC[N+]2(CC)CCCCC2)c1
dose: 6.25 mg/kg/injection, schedule: Q01DX009 (ip), vehicle: saline
  T/C: 110 % of control

## Cn1c([N+](=O)[O-])cnc1CSC(=S)N1CCN(C(=S)SCc2ncc([N+](=O)[O-])n2C)CC1
[4]
  T/C: 106 % of control
[5]
  T/C: 103 % of control
[6]
  T/C: 103 % of control

## CC(=O)Nc1nnc(/C=C/c2ccc([N+](=O)[O-])o2)s1
dose: 400.0 mg/kg/injection, schedule: Q04DX003 (ip), vehicle: Klucel (hydroxypropylcellulose) (HPC)
  T/C: 100 % of control

## Cc1ccc(NC2=CC(=O)C(=O)C=C2Nc2ccc(C)cc2)cc1
dose: 15.0 mg/kg/injection, schedule: Q01DX009 (ip), vehicle: saline with Tween-80
  T/C: 88 % of control
dose: 30.0 mg/kg/injection, schedule: Q01DX009 (ip), vehicle: saline with Tween-80
  T/C: 88 % of control
dose: 60.0 mg/kg/injection, schedule: Q01DX009 (ip), vehicle: saline with Tween-80
  T/C: 100 % of control

## CCOC(c1ccccc1)(c1ccccc1)c1ccccc1
dose: 100.0 mg/kg/injection, schedule: Q04DX003 (ip), vehicle: other
  T/C: 105 % of control
dose: 200.0 mg/kg/injection, schedule: Q04DX003 (ip), vehicle: other
  T/C: 105 % of control
dose: 400.0 mg/kg/injection, schedule: Q04DX003 (ip), vehicle: other
  T/C: 110 % of control

## O=C1C2ON=C(c3ccccc3)C2C(=O)N1OS(=O)(=O)c1ccccc1 (stereo not drawn)
[6]
  T/C: 100 % of control
[1]
  T/C: 100 % of control
[7]
  T/C: 109 % of control
[2]
  T/C: 100 % of control
[3]
  T/C: 100 % of control

## O=C(/C=C/c1ccc(Br)cc1)c1ccc(Cl)cc1
[6]
  T/C: 100 % of control
[1]
  T/C: 100 % of control
[7]
  T/C: 110 % of control
[2]
  T/C: 100 % of control
[8]
  T/C: 100 % of control
[3]
  T/C: 90 % of control

## CN(C)CC#N
dose: 10.0 mg/kg/injection, schedule: Q04DX003 (ip), vehicle: saline
  T/C: 108 % of control
dose: 20.0 mg/kg/injection, schedule: Q04DX003 (ip), vehicle: saline
  T/C: 91 % of control
dose: 40.0 mg/kg/injection, schedule: Q04DX003 (ip), vehicle: saline
  T/C: 95 % of control

## CSC(=S)N/N=C(\C)C1CCCC[N-]1.[I][Zn][I] (stereo not drawn)
[9]
  T/C: 109 % of control and 110 % of control and 115 % of control
[4]
  T/C: 109 % of control (2×) and 117 % of control
[6]
  T/C: 118 % of control

## CCCCCCCCCCCCN1C(=O)[N+](C)(C)N=C1[O-]
[4]
  T/C: 90 % of control
[5]
  T/C: 90 % of control
[6]
  T/C: 92 % of control

## CC(=O)c1cc(CN(CCCl)CCCl)c(O)c(CN(CCCl)CCCl)c1O
dose: 0.05 mg/kg/injection, schedule: Q01DX009 (ip), vehicle: Klucel (hydroxypropylcellulose) (HPC)
  T/C: 100 % of control
dose: 0.1 mg/kg/injection, schedule: Q01DX009 (ip), vehicle: Klucel (hydroxypropylcellulose) (HPC)
  T/C: 120 % of control
dose: 0.2 mg/kg/injection, schedule: Q01DX009 (ip), vehicle: Klucel (hydroxypropylcellulose) (HPC)
  T/C: 110 % of control
dose: 0.4 mg/kg/injection, schedule: Q01DX009 (ip), vehicle: Klucel (hydroxypropylcellulose) (HPC)
  T/C: 120 % of control
dose: 5.5 mg/kg/injection, schedule: Q01DX009 (ip), vehicle: Klucel (hydroxypropylcellulose) (HPC)
  T/C: 162 % of control
dose: 6.25 mg/kg/injection, schedule: Q01DX009 (ip), vehicle: Klucel (hydroxypropylcellulose) (HPC)
  T/C: 118 % of control
dose: 8.0 mg/kg/injection, schedule: Q01DX009 (ip), vehicle: Klucel (hydroxypropylcellulose) (HPC)
  T/C: 166 % of control
dose: 8.3 mg/kg/injection, schedule: Q01DX009 (ip), vehicle: Klucel (hydroxypropylcellulose) (HPC)
  T/C: 166 % of control
dose: 12.0 mg/kg/injection, schedule: Q01DX009 (ip), vehicle: Klucel (hydroxypropylcellulose) (HPC)
  T/C: 183 % of control
dose: 12.5 mg/kg/injection, schedule: Q01DX009 (ip), vehicle: Klucel (hydroxypropylcellulose) (HPC)
  T/C: 183 % of control and 190 % of control
dose: 18.0 mg/kg/injection, schedule: Q01DX009 (ip), vehicle: Klucel (hydroxypropylcellulose) (HPC)
  T/C: 250 % of control
dose: 25.0 mg/kg/injection, schedule: Q01DX009 (ip), vehicle: Klucel (hydroxypropylcellulose) (HPC)
  T/C: 154 % of control

## CCCOC(=O)c1ccc(OP(=O)(N(C)C)N(C)C)cc1
[5]
  T/C: 100 % of control
[6]
  T/C: 104 % of control
[7]
  T/C: 100 % of control

## O=Nc1c(N=O)c(N=O)c(N=O)c(N=O)c1N=O
dose: 1.25 mg/kg/injection, schedule: Q01DX010 (ip), vehicle: saline
  T/C: 90 % of control
dose: 2.5 mg/kg/injection, schedule: Q01DX010 (ip), vehicle: saline
  T/C: 100 % of control
dose: 5.0 mg/kg/injection, schedule: Q01DX010 (ip), vehicle: saline
  T/C: 100 % of control
dose: 10.0 mg/kg/injection, schedule: Q01DX010 (ip), vehicle: saline
  T/C: 95 % of control
dose: 80.0 mg/kg/injection, schedule: Q01DX010 (ip), vehicle: saline
  T/C: 104 % of control

## COc1cc(Br)c(CCC#N)cc1OC
[5]
  T/C: 91 % of control
[6]
  T/C: 110 % of control
[7]
  T/C: 92 % of control

## COc1ccc(/C=C2\SC(=S)N(CCCN3CCOCC3)C2=O)c(OC)c1
[5]
  T/C: 97 % of control
[6]
  T/C: 92 % of control
[7]
  T/C: 95 % of control

## C/C(CC1(O)C(=O)Nc2ccccc21)=N\O (stereo not drawn)
[6]
  T/C: 100 % of control
[7]
  T/C: 95 % of control
[8]
  T/C: 104 % of control

## O=C1C=C(Nc2ccccc2)CCC1
dose: 50.0 mg/kg/injection, schedule: Q01DX009 (ip), vehicle: saline
  T/C: 99 % of control
[10]
  T/C: 100 % of control
[11]
  T/C: 103 % of control

## CC(=O)NC1CC(=O)N(c2ccccc2)C1 (stereo not drawn)
dose: 87.5 mg/kg/injection, schedule: Q01DX009 (ip), vehicle: saline with Tween-80
  T/C: 102 % of control
dose: 175.0 mg/kg/injection, schedule: Q01DX009 (ip), vehicle: saline with Tween-80
  T/C: 111 % of control
dose: 350.0 mg/kg/injection, schedule: Q01DX009 (ip), vehicle: saline with Tween-80
  T/C: 100 % of control

## N#C/C(C(=N)c1ccccc1)=C1\SS/C(=C(\C#N)C(=N)c2ccccc2)S1
dose: 1.5 mg/kg/injection, schedule: Q01DX009 (ip), vehicle: saline with Tween-80
  T/C: 101 % of control

## Oc1cccc2cccnc12
[5]
  T/C: 100 % of control
[6]
  T/C: 97 % of control

## COc1cc(N2CCOCC2)ccc1[N+](=O)[O-]
[10]
  T/C: 91 % of control
dose: 100.0 mg/kg/injection, schedule: Q04DX003 (ip), vehicle: saline
  T/C: 109 % of control
[11]
  T/C: 100 % of control
dose: 200.0 mg/kg/injection, schedule: Q04DX003 (ip), vehicle: saline
  T/C: 104 % of control
dose: 400.0 mg/kg/injection, schedule: Q04DX003 (ip), vehicle: saline
  T/C: 95 % of control

## CC(=O)OCCN1CCN(CCCN2c3ccccc3Sc3ccc(C(F)(F)F)cc32)CC1
dose: 0.69 mg/kg/injection, schedule: Q01DX009 (ip), vehicle: saline
  T/C: 104 % of control
dose: 1.04 mg/kg/injection, schedule: Q01DX009 (ip), vehicle: saline
  T/C: 104 % of control
dose: 1.56 mg/kg/injection, schedule: Q01DX009 (ip), vehicle: saline
  T/C: 120 % of control
dose: 2.34 mg/kg/injection, schedule: Q01DX009 (ip), vehicle: saline
  T/C: 108 % of control
dose: 25.0 mg/kg/injection, schedule: Q04DX003 (ip), vehicle: saline with Tween-80
  T/C: 117 % of control
[12]
  T/C: 91 % of control

## COc1cccc2c1C(=O)c1c(O)c(COC3CC(N)C(O)C(C)O3)cc(O)c1C2=O (stereo not drawn)
dose: 12.5 mg/kg/injection, schedule: Q01DX009 (ip), vehicle: water
  T/C: 100 % of control
dose: 25.0 mg/kg/injection, schedule: Q01DX009 (ip), vehicle: water
  T/C: 100 % of control

## C=CCNC(=S)Nc1ccc(N(C)C)cc1
[12]
  T/C: 100 % of control
[1]
  T/C: 95 % of control
[2]
  T/C: 109 % of control

## CO[C@@H]1[C@H](O)CC[C@]2(CO2)[C@H]1[C@@]1(C)O[C@@H]1CC=C(C)C
dose: 3.13 mg/kg/injection, schedule: Q01DX009 (ip), vehicle: saline with Tween-80
  T/C: 100 % of control
dose: 6.25 mg/kg/injection, schedule: Q01DX009 (ip), vehicle: saline with Tween-80
  T/C: 97 % of control
[9]
  T/C: 106 % of control
dose: 12.5 mg/kg/injection, schedule: Q01DX009 (ip), vehicle: saline
  T/C: 98 % of control
dose: 37.5 mg/kg/injection, schedule: Q01DX009 (ip), vehicle: saline with Tween-80
  T/C: 100 % of control

## COc1ccc(C(=O)C(C)C=O)c(OCc2ccccc2)c1OC (stereo not drawn)
[6]
  T/C: 95 % of control
[1]
  T/C: 104 % of control
[7]
  T/C: 113 % of control
[2]
  T/C: 113 % of control
[3]
  T/C: 90 % of control
